ChEMBL document CHEMBL1201862, “PubChem BioAssay data set” (2004)
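Test compounds were applied to cells in 96-well plates for 48 hours at 5 doses. Abbreviation: GI50, concentration required for 50% inhibition of growth.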 Calls of active or inactive are those of the source. No stated cut-off is given here; in the data, active = GI50 up to about 1.1 µM and inactive = higher.

Tests used:
Test in all cases: DTP human tumour cell line panel, 48 h
[1] = system: SK-MEL-28
[2] = system: CCRF-CEM
[3] = system: CAKI-1
[4] = system: M14
[5] = system: ACHN
[6] = system: OVCAR-4
[7] = system: MDA-N
[8] = system: MOLT-4
[9] = system: LOX IMVI
[10] = system: DU-145
[11] = system: T47D
[12] = system: MDA-MB-231
[13] = system: SNB-75
[14] = system: MDA-MB-435
[15] = system: OVCAR-3
[16] = system: Malme-3M
[17] = system: UACC-62
[18] = system: RPMI-8226
[19] = system: IGROV-1
[20] = system: RXF 393
[21] = system: HCT-116
[22] = system: SK-MEL-2
[23] = system: NCI-H522
[24] = system: UO-31
[25] = system: SK-OV-3
[26] = system: 786-0
[27] = system: SW-620
[28] = system: OVCAR-5
[29] = system: KM12
[30] = system: SF-295
[31] = system: PC-3
[32] = system: NCI-H226
[33] = system: NCI-H460
[34] = system: BT-549
[35] = system: HCT-15
[36] = system: HOP-92
[37] = system: SF-268
[38] = system: U-251
[39] = system: COLO 205
[40] = system: SN12C
[41] = system: SF-539
[42] = system: A498
[43] = system: EKVX
[44] = system: HOP-62
[45] = system: HT-29
[46] = system: MCF7
[47] = system: HCC 2998
[48] = system: UACC-257
[49] = system: NCI-H23
[50] = system: SK-MEL-5
[51] = system: NCI/ADR-RES
[52] = system: TK-10
[53] = system: K562
[54] = system: A549
[55] = system: Hs-578T
[56] = system: SNB-19
[57] = system: OVCAR-8

Measured: GI50

C=C(C)C1CC2=C(O1)C(=O)c1cccc(O)c1C2=O (stereo not drawn)
active: [2] 0.209 µM | [3] 0.764 µM | [4] 0.951 µM | [6] 0.327 µM | [7] 0.064 µM | [8] 0.2 µM | [14] 0.129 µM | [15] 0.214 µM | [16] 1.08 µM | [17] 0.883 µM | [18] 0.265 µM | [19] 0.256 µM | [20] 1.04 µM | [23] 0.378 µM | [27] 0.929 µM | [34] 0.406 µM | [36] 0.604 µM | [37] 0.333 µM | [41] 0.671 µM | [46] 0.586 µM | [48] 0.271 µM | [49] 0.244 µM | [50] 0.144 µM | [51] 1.05 µM | [53] 0.0935 µM
inactive: [1] 1.7 µM | [5] 1.72 µM | [9] 4.26 µM | [10] 1.76 µM | [11] 1.23 µM | [12] 1.82 µM | [13] 2.29 µM | [21] 10.9 µM | [22] 1.17 µM | [24] 1.41 µM | [25] 1.51 µM | [26] 9.12 µM | [28] 1.57 µM | [29] 1.69 µM | [30] 1.36 µM | [31] 1.69 µM | [32] 1.78 µM | [33] 1.91 µM | [38] 1.43 µM | [39] 1.75 µM | [40] 1.21 µM | [42] 5.46 µM | [43] 1.17 µM | [44] 1.57 µM | [45] 1.59 µM | [47] 1.99 µM | [52] 2.5 µM | [54] 2.47 µM | [55] 1.16 µM | [56] 1.95 µM
2.05 µM: [35]

CCOC(=O)Nc1nn[nH]c1Cl
> 100 µM: [35]
inactive: [1] > 100 µM | [57] > 100 µM | [3] > 100 µM | [4] > 100 µM | [6] > 100 µM | [7] > 100 µM | [8] > 100 µM | [9] > 100 µM | [10] > 100 µM | [11] > 100 µM | [12] > 100 µM | [13] > 100 µM | [14] > 100 µM | [15] > 100 µM | [16] > 100 µM | [17] > 100 µM | [18] > 100 µM | [19] > 100 µM | [20] > 100 µM | [21] > 100 µM | [22] > 100 µM | [23] > 100 µM | [24] > 100 µM | [25] > 100 µM | [26] > 100 µM | [27] > 100 µM | [28] > 100 µM | [29] 63 µM | [31] > 100 µM | [32] > 100 µM | [33] > 100 µM | [34] > 100 µM | [37] > 100 µM | [38] > 100 µM | [39] > 100 µM | [40] > 100 µM | [41] > 100 µM | [42] > 100 µM | [43] > 100 µM | [44] > 100 µM | [45] > 100 µM | [46] > 100 µM | [47] > 100 µM | [48] > 100 µM | [49] > 100 µM | [50] > 100 µM | [51] > 100 µM | [52] > 100 µM | [53] > 100 µM | [54] > 100 µM | [55] > 100 µM
